Data on five molecules can be found in paper PMC10140157, “Molecular determinants for differential activation of the bile acid receptor from the pathogen Vibrio parahaemolyticus” (The Journal of Biological Chemistry, 2023).

The target of assay [1] is T1, VtrA–VtrC periplasmic domain complex (heterodimer) (Vibrio parahaemolyticus, UniProt Q87GI3+Q87GI4).
T1 construct: gene VPA1333; periplasmic domains: VtrC residues 31-161 with N-terminal His6 tag, coexpressed with VtrA residues 161-253 (pACYC-Duet-VtrC/VtrA, E. coli BL21(DE3)); heterodimer, bile acid lies in the beta-barrel, contacts printed are VtrC residues
Description: isothermal titration calorimetry. The assay is classed as binding. (In general: Isothermal titration calorimetry measures the heat released or taken up as one component is titrated into another.)

Assay [2] has as its target T1, VtrA–VtrC periplasmic domain complex (heterodimer). Description: isothermal titration calorimetry; crystal structure of the complex also solved ([…] Å). In kind it is binding.
The target in assay [3] is T2, VtrA–VtrC periplasmic domain complex (heterodimer) (Vibrio parahaemolyticus, UniProt Q87GI3+Q87GI4, Q87GI3:H50A).
T2 construct: gene VPA1333
Description: biochemical. An excerpt:
(§1) isothermal titration calorimetry on VtrA–VtrC periplasmic domain complex (heterodimer)

Assay [4] concerns the target T3, VtrA–VtrC periplasmic domain complex (heterodimer) (Vibrio parahaemolyticus, UniProt Q87GI3+Q87GI4, Q87GI3:S123A).
T3 construct: gene VPA1333
Briefly: biochemical.
Excerpt: as §1

For assay [5], the target named is T4, VtrA–VtrC periplasmic domain complex (heterodimer) (Vibrio parahaemolyticus, UniProt Q87GI3+Q87GI4, Q87GI3:Y151A).
T4 construct: gene VPA1333
Briefly: biochemical.
Excerpt: as §1

Assay [6] deals with T5, VtrA–VtrC periplasmic domain complex (heterodimer) (Vibrio parahaemolyticus, UniProt Q87GI3+Q87GI4, Q87GI3:Y151F).
T5 construct: gene VPA1333
Briefly: biochemical.
Excerpt: as §1

Assay [7] concerns the target T6, VtrA–VtrC periplasmic domain complex (heterodimer) (Vibrio parahaemolyticus, UniProt Q87GI3+Q87GI4, Q87GI3:Y81A).
T6 construct: gene VPA1333
Description: biochemical.
Excerpt: as §1

By Kd is commonly meant the concentration at which binding is half-saturated. The low end stands for higher affinity, the high end for lower affinity. `C[C@H](CCC(=O)O)[C@H]1CC[C@H]2[C@@H]3[C@H](O)C[C@@H]4C[C@H](O)CC[C@]4(C)[C@H]3C[C@H](O)[C@]12C` [CA, cholate] returned a Kd in assay [1] of 377 nM.
Regarding `C[C@H](CCC(=O)O)[C@H]1CC[C@H]2[C@@H]3[C@H](O)C[C@@H]4C[C@H](O)CC[C@]4(C)[C@H]3CC[C@]12C` [CDC, chenodeoxycholate], the dissociation constant Kd amounted to 310 nM in assay [2]; 904 nM in assay [3]; 202 nM in assay [4]; 2280 nM in assay [5]; 1170 nM in assay [6]; 731 nM in assay [7].
As for `C[C@H](CCC(=O)O)[C@H]1CC[C@H]2[C@@H]3CC[C@@H]4C[C@H](O)CC[C@]4(C)[C@H]3C[C@H](O)[C@]12C` [DC, deoxycholate], the affinity in assay [1], expressed as Kd, was 232 nM. This lies in the sub-micromolar range.
The same measure, in the same setting: under `C[C@H](CCC(=O)NCC(=O)O)[C@H]1CC[C@H]2[C@@H]3[C@H](O)C[C@@H]4C[C@H](O)CC[C@]4(C)[C@H]3CC[C@]12C` [GCDC, glycochenodeoxycholate] stands 211 nM.
As for `C[C@H](CCC(=O)NCCS(=O)(=O)O)[C@H]1CC[C@H]2[C@@H]3CC[C@@H]4C[C@H](O)CC[C@]4(C)[C@H]3C[C@H](O)[C@]12C` [TDC, taurodeoxycholate], the Kd turned out to be 129 nM in assay [1]; 301 nM in assay [3]; 91.2 nM in assay [4]; 2500 nM in assay [5]; 873 nM in assay [6]; 1190 nM in assay [7].
